Laboratory results from US11064704B2, “Natural product formulations with improved residual insect repellent/deterrent activity” (University of Mississippi, priority 2016, dated 2021).

What was measured:
Aedes aegypti = experiment: in vitro Klun and Debboun (K&D) biting deterrent bioassay; assay type: in vivo
Method: Experiments were conducted by using a six-celled in vitro Klun and Debboun (K&D) module bioassay system developed by Klun et al. (2005) for quantitative evaluation of biting deterrence. Briefly, the assay system consists of a six well reservoir with each of the 3×4 cm wells containing 6 mL of blood or feeding solution. As described by Ali et al. (2012), a feeding solution consisting of CPDA-1 and ATP was used instead of blood. Green fluorescent tracer dye (www.blacklightworld.com) was used to determine the feeding by the females. Carrot seed essential oil was initially tested to determine the biting deterrent activity. […] Essential oil and carotol were further tested against Ae. aegypti and An. quadrimaculatus in this bioassay. Treatments of carrot seed essential oil at 10 μg/cm^2 and carotol were tested at 10 and 5 μg/cm^2, whereas DEET (97% N,N-diethyl-meta-toluamide) (Sigma Aldrich, St. Louis, Mo.) at 25 nmol/cm^2 was used as positive control. All the treatments were freshly prepared in molecular biology grade 100% ethanol (Fisher Scientific Chemical Co. Fairlawn, N.J.) at the time of bioassay.
The temperature of the solution in the reservoirs was maintained at 37° C. by continuously passing warm water through the reservoir using a circulatory bath. The reservoirs were covered with a layer of collagen membrane (Devro, Sandy Run, S.C.). The test compounds were randomly applied to six 4×5 cm areas of organdy cloth and positioned over the membrane-covered CPDA-1+ATP solution with a Teflon® separator placed between the treated cloth and the six-celled module to prevent the contamination of the module. A six-celled K&D module containing five female mosquitoes per cell was positioned over cloth treatments covering the six CPDA-1+ATP solution membrane wells, and trap doors were opened to expose the treatments to these females. The number of mosquitoes biting through organdy treatments in each cell was recorded after a 3 minute exposure, and mosquitoes were prodded back into the cells to check the actual feeding. Mosquitoes were squashed and the presence of green fluorescent tracer dye (or not) in the gut was used as an indicator of feeding. A replicate consisted of six treatments: four test compounds, DEET (a standard biting deterrent) and ethanol-treated organdy as solvent control applied randomly. Sets of 5 replications each with 5 females per treatment were conducted on 2-3 different days using newly-treated organdy and a new batch of females in each replication. Treatments were replicated 10-15 times. Proportion not biting (PNB) was calculated using the procedure described by Ali et al. (2012).

Aedes albopictus females = experiment: in vivo cloth patch repellent bioassay
Method: (§1) Cloth patch bioassays were conducted by using in vivo bioassay system described by Katritzky et al. (2008, 2010), with minor modifications. Approximately 500 (±5%) mosquitoes, consisting primarily of females, were transferred into a test cage (45×45×45 cm) using an aspirator. A series of dosages of test compounds were tested to determine MED for repellency of the mosquitoes. MED refers to a concentration of the compound at which biting is less than or equal to 1% (i.e. less than or equal to 5 out of 500 females in the cage) during a 1 minute exposure time. A series of concentrations ranging between 6.25 to 100 μg/cm^2 were tested in the A&K bioassay.
(§2) A single test consisted of covering the hand of a volunteer with a soft-embossed long cuff poly glove (Atlantis Products, Mankato, Minn.), then by a powder-free latex glove (Diamond Grip, Microflex Corporation, Reno, Nev.). The arm was then covered with a knee high stocking (Leggs® Everyday Knee Highs, Winston-Salem N.C. 27102) to avoid the contact of treated muslin cloth with the skin. A plastic sleeve constructed of polyvinyl was then placed around the arm. Velcro strips were used to fix the plastic sleeve around the arm. About half-way between the wrist and elbow, a 4×7.5 cm slit in the plastic sleeve was used to assess mosquito landing and biting behavior. This opening permitted the attractive odors from the skin surface to emanate out and attract mosquitoes through this opening. During testing, this 30 cm^2 open area was covered with a piece of treated muslin cloth. Because of constraint of man power, only one volunteer who was provided written informed consent participated in this study. A protocol approved by the University of Mississippi Human Use Institutional Review Board (IRB protocol #15-070) was followed.
(§3) Stock solutions with concentration of 80 μg/ul were prepared in ethanol. Concentrations ranging between 6.25 to 100 μg/cm^2 were selected for testing based on previous experience of the inventors with the A&K bioassay. A piece of muslin cloth measuring 8×13 cm in size was used. An area of 4×7.5 cm was marked in the center of muslin cloth. Approximately 2.5×7 cm pieces of cardboard were attached by staples on the sides of the muslin cloth. Treatments were applied to the marked area of the cloth in 215 μL volume using a pipetter. After drying, the treated muslin cloth was secured on the opening of the plastic sleeve by using an adhesive tape.
(§4) The test started when the arm with sleeve and treated muslin cloth was inserted into the mosquito cage. […] Residual activity was determined by exposing the females to the treated muslin cloth at an interval of 30 minutes. The treated muslin patch was kept on the arm after the initial treatment and tested every half an hour thereafter.
(§5) Testing started at the highest dose (100 μg/cm^2) and the dose was lowered to reach the MED. Because the mosquitoes show reduced behavioral activity upon repeated exposure to repellent odors from the arm, after 5 successive exposures of the treatments, the caged mosquitoes were allowed a 15 min recovery period.

Aedes aegypti females = experiment: in vivo cloth patch repellent bioassay; settings: for residual repellent activity: time post treatment at which activity lost: 12.5 μg/cm^2; for minimum effective dose (MED): cloth patch, 1 minute exposure
Method: as §1, §2, §3, §4, §5

[1] = system: Anopheles quadrimaculatus females; experiment: in vivo cloth patch repellent bioassay
Method: as §1, §2, §3, §4, §5

## CCN(CC)C(=O)c1cccc(C)c1 [DEET, N,N-diethyl-meta-toluamide, reference compound]
Aedes aegypti; 25 nmol/cm^2
  proportion not biting (PNB): 0.85
Aedes albopictus females
  minimum effective dose (MED): 12.5 μg/cm^2
Aedes aegypti females
  residual repellent activity: time post treatment at which activity lost: 30 min
  minimum effective dose (MED): 12.5 μg/cm^2
[1]
  minimum effective dose (MED): 6.25 μg/cm^2

## CC1=CC[C@]2(C)CC[C@@H](C(C)C)[C@]2(O)CC1 [carotol]
Aedes aegypti; 5 μg/cm^2
  proportion not biting (PNB): 0.66
Aedes aegypti; 10 μg/cm^2
  proportion not biting (PNB): 0.9
Aedes aegypti; compared with DEET
  biting deterrent activity: comparable to DEET
Aedes albopictus females
  minimum effective dose (MED): 12.5 μg/cm^2
Aedes aegypti females
  residual repellent activity: time post treatment at which activity lost: failed
  minimum effective dose (MED): 25 μg/cm^2
Aedes aegypti females; 25 μg/cm^2
  residual repellent activity like DEET: time post treatment up to: 120 min
Aedes aegypti females; 50 μg/cm^2
  residual repellent activity like DEET: time post treatment up to: 120 min
[1]
  minimum effective dose (MED): 6.25 μg/cm^2
